From patent publication US6821769B2, “IniB, iniA and iniC genes of mycobacteria and methods of use” (priority 1998, dated 2004)

Tested on: iniA
Type: cell-based, BCG

NNC(=O)c1ccncc1 [isoniazid]
Induction of iniA in isoniazid resistant BCG strain: Lack of iniA induction
Induction of iniA in isoniazid susceptible BCG strain: seen only in the susceptible BCG strain
